Where two headings read alike, the source gives them in different places.
Legend:
[1] = test system: HBV; experiment: anti-HBV activity in vivo in AAV/HBV mice; details: 20 mg/kg
[2] = test system: interferon-stimulated genes (ISGs) and cytokines in peripheral blood; experiment: single oral administration in monkeys: tolerability, ISG and cytokine induction; format: in vivo
Source text: (§1) Exposure increased more than dose-proportionally at low doses. Variability in exposure was high. • In vitro plasma protein binding was between 79.6% and 94.2% in animals and humans. Volume of distribution after intravenous dosing was high. […] Main metabolic pathways were oxygenation, hydrogenation, dehydrogenation, dealkylation, acetylation, glucuronidation, and/or glutathione conjugation. • In rats, >80% of drug-related material was found in feces, 11% to 20% in bile, and <4% in urine. […] There were no effects on embryofetal development up to 1 mg/kg/dose in rats and 30 mg/kg/dose in rabbits.

[3] = pharmacokinetics and metabolism in animals; format: in vivo, rats and monkeys
Source text: as §1

[4] = in vitro plasma protein binding; format: in vitro ADME; details: human, animals and humans
Source text: as §1

[5] = off-target liabilities in vitro; details: read-out: lowest IC50 for off-target liabilities
Source text: as §1

[6] = genotoxic potential
Source text: as §1

[7] = 6-month toxicity study in rats; details: rat, in vivo
Source text: as §1

[8] = 14- and 28-day toxicity study in monkeys; format: in vivo; details: 3, 15, and 100 mg/kg biw
Source text: as §1

[9] = embryofetal development in rats; format: in vivo
Source text: as §1

[10] = test system: HBV-infected PHHs; experiment: antiviral activity of compound-stimulated human whole blood and PBMC supernatant in HBV-infected PHHs; format: cell-based
[11] = BCS classification; format: physicochemical; details: high solubility, low permeability
Description: AUC48h was approximately 17% (95% Cl: 65.89-105.71%) lower in fed condition compared with fasted. These differences are aligned with BCS Class 3 (high solubility, low permeability) compound properties.

[12] = Phase 1 multiple dose (Part 2): safety and tolerability in healthy adults; format: in vivo, human; details: 1.25 mg qw fasted
Description: All volunteers were followed up for 4 weeks and safety and tolerability were continuously assessed throughout the study. All adverse events (AEs) were recorded from the time of consent to the completion visit and were graded using the DAIDS toxicity grading scale. Volunteers also underwent physical examinations, electrocardiograms, vital sign checks and clinical laboratory parameters (chemistry, haematology, urinalysis).

[13] = Phase 1 multiple dose pharmacokinetics in healthy adults; format: in vivo, human
Description: Following a single dose of Compound 4, intensive blood samples were collected over the first 24 hours, samples were then collected daily through Day 7, and weekly samples were collected through Day 35. Plasma concentrations of Compound 4 were evaluated using a validated liquid chromatography with tandem mass spectrometry method; the lower limit of quantification was 1 pg/mL. PK parameters were estimated using non-compartmental analysis (WinNonlin®, Certara, Princeton, NJ, USA). Descriptive statistics were used to summarize plasma concentrations and derived PK parameters of Compound 4. The impact of food on PK parameters was analyzed using geometric least square mean point estimates (mixed-effects model on log-transformed values with treatment as fixed effect and subject as a random effect).
Compound 4 was administered every week for 4 weeks in fasted condition at a dose of 1.25 mg.

[14] = after 4 weeks of qw dosing, 1.25 mg

For CCCCOc1nc(N)c2[nH]cc(Cc3ccc(CN4CCCC4)cc3)c2n1 [Compound 4], the HBsAg seroconversion [1] was “in all animals”, the HBsAg serum levels [1] was “undetectable” and the “time post-treatment reductions in HBsAg levels were sustained” value [1] was “up to 3 weeks”. The “cytokine induction (IFN-α, IP-10, IL-1 RA, MCP-1)” value ([2]; 0.6 mg/kg) was “induction of 4 of the 14 cytokines tested”, the cytokine induction ([2]; 0.1 and 0.15 mg/kg) was “only increases in IP-10 were detected” and the “ISG15, MX1 and OAS1 in peripheral blood” value ([2]; each dose, 12-24 hours postdose) was “increase in all 3 major interferon-stimulated genes”. For the same compound, the “dose for which the LEC was observed (minimal target engagement)” value ([2]; monkey, in vivo) was 0.1 mg/kg, the tolerability ([2]; single oral 0.05, 0.1, 0.15 and 0.6 mg/kg) was “well tolerated” and the blood clearance ([3]; in vivo) was “moderate”. For the same compound, the volume of distribution ([3]; intravenous dosing) was “high”, the tissue distribution ([3]; oral dosing in rats and monkeys) was “highest levels in liver, small intestines and brain” and the half-life ([3]; rat, monkey, in vivo) was 5 to 14 h. It also gave a Tmax ([3]; rat, monkey, in vivo, oral dosing) of 0.8 to 2 h, a fraction unbound [4] of 0.058 to 0.204 and an IC50 [5] of no less than 1970 nM. The genotoxic potential [6] was “free of genotoxic potential”, the AUC(0-t) ([7]; 1.0 mg/kg qw or q2w, read-out: AUC24h at NOAEL) was 16.6 to 27.3 ng·h/mL and the Cmax ([7]; 1.0 mg/kg qw or q2w, read-out: Cmax at NOAEL) was 3.32 to 7.88 ng/mL. For the same compound, the NOAEL at 6 months ([7]; qw or q2w, 6 months) was 1 mg/kg, the brain inflammation [8] was “Brain inflammation occurred” and the “post-implantation loss and fetal weights” value ([9]; pregnant rats, 3 mg/kg biw) was “Post-implantation loss and fetal weights effects were noted”. The “dose without effects on embryofetal development” value ([9]; rats) was “up to 1 mg/kg/dose”, the “anti-HBV activity target concentration in vitro” value [10] was 3.3 nM and the “maximum decline of HBV DNA compared to DMSO controls” value ([10]; 3.3 nM) was 1.5 log 10. The “maximum decline of HBV RNA compared to DMSO controls” value ([10]; 3.3 nM) was 1.1 log 10, the “maximum decline of HBeAg compared to DMSO controls” value ([10]; 3.3 nM) was 1.3 log 10 and the “maximum decline of HBsAg compared to DMSO controls” value ([10]; 3.3 nM) was 0.4 log 10. The BCS class [11] was “BCS Class 3”, the “ECG actual value: Heart rate (bpm) Low” value [12] was 0 n (%) and the “ECG actual value: QTcB (ms) ]450; 480]” value [12] was 1 (16.7%) n (%). For the same compound, the “ECG change from reference: QTcB (ms) >60” value [12] was 1 (16.7%) n (%), the “ECG change from reference: QTcB (ms) [30; 60]” value [12] was 1 (16.7%) n (%) and the “ECG change from reference: QTcF (ms) [30; 60]” value [12] was 1 (16.7%) n (%). The “lab toxicity: Amylase (U/L), upwards, Grade 1” value [12] was 2 (33.3%) n (%), the “lab toxicity: Amylase (U/L), upwards, Grade 2” value [12] was 0 n (%) and the “lab toxicity: Aspartate aminotransferase (U/L), upwards, Grade 1” value [12] was 1 (16.7%) n (%). For the same compound, the “lab toxicity: Aspartate aminotransferase (U/L), upwards, Grade 2” value [12] was 1 (16.7%) n (%), the “lab toxicity: Cholesterol (mmol/L), upwards, Grade 1” value [12] was 1 (16.7%) n (%) and the “lab toxicity: Creatine kinase (U/L), upwards, Grade 3” value [12] was 1 (16.7%) n (%). The “lab toxicity: Creatine kinase (U/L), upwards, Grade 4” value [12] was 1 (16.7%) n (%), the “lab toxicity: GFR from creatinine adjusted for BSA (mL/s/1.73m^2), downwards, Grade 2” value [12] was 1 (16.7%) n (%) and the “lab toxicity: Glucose (mmol/L), upwards, Grade 1” value [12] was 4 (66.7%) n (%). The “lab toxicity: Glucose (mmol/L), upwards, Grade 2” value [12] was 2 (33.3%) n (%), the “lab toxicity: Potassium (mmol/L), upwards, Grade 1” value [12] was 1 (16.7%) n (%) and the “lab toxicity: Sodium (mmol/L), upwards, Grade 1” value [12] was 0 n (%). For the same compound, the “lab toxicity: Triglycerides (mmol/L), upwards, Grade 1” value [12] was 1 (16.7%) n (%), the “lab toxicity: Triglycerides (mmol/L), upwards, Grade 2” value [12] was 2 (33.3%) n (%) and the “subjects with at least one AE” value [12] was 6 (100%) n (%). The “subjects with at least one AE for which any study drug or study was permanently stopped” value [12] was 1 (16.7%) n (%), the “subjects with at least one AE for which any study drug or study was temporarily stopped” value [12] was 0 n (%) and the “subjects with at least one AE possibly related to any study drug” value [12] was 2 (33.3%) n (%). For the same compound, the “subjects with at least one AE possibly, probably or very likely related to any study drug” value [12] was 3 (50.0%) n (%), the “subjects with at least one AE probably related to any study drug” value [12] was 1 (16.7%) n (%) and the “subjects with at least one AE very likely related to any study drug” value [12] was 1 (16.7%) n (%). For the same compound, the “subjects with at least one SAE” value [12] was 0 n (%), the “subjects with at least one fatal AE” value [12] was 0 n (%) and the “subjects with at least one grade 1 AE” value [12] was 5 (83.3%) n (%). For the same compound, the “subjects with at least one grade 2 AE” value [12] was 1 (16.7%) n (%), the “subjects with at least one grade 3 or 4 AE” value [12] was 0 n (%) and the “subjects with high values for the monocytes/leukocytes ratio (non-graded)” value [12] was 4 (66.7%) n (%). For the same compound, the “subjects with low erythrocyte count (non-graded)” value [12] was 3 (50.0%) n (%), the “treatment-related AE: Abdominal pain” value [12] was 0 n (%) and the “treatment-related AE: Any AE” value [12] was 3 (50.0%) n (%). For the same compound, the “treatment-related AE: Arthralgia” value [12] was 1 (16.7%) n (%), the “treatment-related AE: Dry skin” value [12] was 1 (16.7%) n (%) and the “treatment-related AE: Dyspnoea” value [12] was 1 (16.7%) n (%). For the same compound, the “treatment-related AE: Eye disorders” value [12] was 1 (16.7%) n (%), the “treatment-related AE: Gastrointestinal disorders” value [12] was 1 (16.7%) n (%) and the “treatment-related AE: Headache” value [12] was 1 (16.7%) n (%). The “treatment-related AE: Nausea” value [12] was 1 (16.7%) n (%), the “treatment-related AE: Nervous system disorders” value [12] was 1 (16.7%) n (%) and the “treatment-related AE: Respiratory, thoracic and mediastinal disorders” value [12] was 1 (16.7%) n (%). For the same compound, the “treatment-related AE: Retching” value [12] was 1 (16.7%) n (%), the “treatment-related AE: Retinal exudates” value [12] was 1 (16.7%) n (%) and the “treatment-related AE: Skin and subcutaneous tissue disorders” value [12] was 1 (16.7%) n (%). For the same compound, the “vital signs: Respiratory rate (brpm) Grade 1” value [12] was 4 (66.7%) n (%), the “vital signs: SaO2 (%) 95% to <98%” value [12] was 5 (83.3%) n (%) and the “vital signs: Standing DBP (mmHg) Grade 1” value [12] was 2 (33.3%) n (%). The “vital signs: Standing DBP (mmHg) Grade 2” value [12] was 2 (33.3%) n (%), the “vital signs: Standing DBP (mmHg) Grade 3” value [12] was 2 (33.3%) n (%) and the “vital signs: Standing SBP (mmHg) Grade 1” value [12] was 3 (50.0%) n (%). The “vital signs: Standing SBP (mmHg) Grade 2” value [12] was 0 n (%), the “vital signs: Standing SBP (mmHg) Low” value [12] was 2 (33.3%) n (%) and the “vital signs: Standing pulse (bpm) High” value [12] was 3 (50.0%) n (%). For the same compound, the “vital signs: Supine DBP (mmHg) Grade 1” value [12] was 2 (33.3%) n (%), the “vital signs: Supine SBP (mmHg) Grade 1” value [12] was 1 (16.7%) n (%) and the “vital signs: Supine SBP (mmHg) Low” value [12] was 0 n (%). The “vital signs: Supine pulse (bpm) Low” value [12] was 1 (16.7%) n (%), the “lab toxicity: LDL cholesterol (mmol/L, direct), upwards, Grade 1” value ([12]; n = 1 with data) was 1 (100.0%) n (%) and the “lab toxicity: Pancreatic amylase (U/L), upwards, Grade 1” value ([12]; n = 2 with data) was 1 (50.0%) n (%). The “excreted as unchanged drug in urine within the first 24 hours after the first and second dosing” value ([13]; 1.25 mg qw fasted) was “Less than 0.22%”, the “terminal elimination, median value” ([13]; 1.25 mg qw fasted) was 244 h and the “mean accumulation ratio for AUC24h” value [13, 14] was 1.83. For the same compound, the “mean accumulation ratio for AUC72h” value [13, 14] was 2.27, the “mean accumulation ratio for AUCT” value [13, 14] was 2.75 and the Cmax ([13]; human, plasma, oral, 1.25 mg, 1.25 mg qw fasted, SD 67.2, read-out: mean Cmax after the fourth dose) was 0.235 ng/mL. It also gave a Cmax ([13]; human, plasma, oral, 1.25 mg, 1.25 mg qw fasted, SD 88.4, read-out: mean Cmax after the first dose) of 0.186 ng/mL, an AUC ([13]; human, plasma, oral, 1.25 mg, 1.25 mg qw fasted, SD 591, read-out: mean AUC24h after the fourth dose) of 1.76 ng·h/mL and an AUC ([13]; human, plasma, oral, 1.25 mg, 1.25 mg qw fasted, SD 874, read-out: mean AUC24h after the first dose) of 1.21 ng·h/mL. The concentration at 21 days ([13]; human, plasma, oral, 1.25 mg qw fasted, read-out: mean Ctrough before the fourth dose) was 0.0408 ± 0.0489 ng/mL and the concentration at 7 days ([13]; human, plasma, oral, 1.25 mg qw fasted, read-out: mean Ctrough before the second dose) was 0.00717 ± 0.0032 ng/mL.
